In brackets after ≈: the same amount, converted by molar mass.
Assays:
[1] = target: T1, Phosphatidylinositol 4,5-bisphosphate 3-kinase catalytic subunit alpha isoform (Homo sapiens, UniProt P42336); assay: Inhibition of PIK3CA-mediated cell signaling in PTEN-deficient human U87MG cells assessed as inhibition of insulin-induced pAkt/PKB phosphorylation at Ser473 treated for 15 mins before insulin challenge measured after 5 mins by immunoblotting; format: cell-based, U-87MG ATCC
[2] = Half life in CD1 mouse at 10 mg/kg, ip administered as single dose by LC-MS/MS analysis; format: ADME, organism-based; parameters: dose 10 mg/kg, route intraperitoneal; settings: in vivo
[3] = Inhibition of bovine recombinant PI3K p110delta expressed in Sf21 insect cells using phosphatidylinositol as substrate after 1 hr by phosphoimaging; parameters: species or system Bos taurus
[4] = target: T2, Phosphatidylinositol 4,5-bisphosphate 3-kinase catalytic subunit delta isoform (Homo sapiens, UniProt O00329); assay: Inhibition of human His-tagged PI3K p110delta after 2 hrs by HTRF assay
T2 sequence (O00329 whole entry): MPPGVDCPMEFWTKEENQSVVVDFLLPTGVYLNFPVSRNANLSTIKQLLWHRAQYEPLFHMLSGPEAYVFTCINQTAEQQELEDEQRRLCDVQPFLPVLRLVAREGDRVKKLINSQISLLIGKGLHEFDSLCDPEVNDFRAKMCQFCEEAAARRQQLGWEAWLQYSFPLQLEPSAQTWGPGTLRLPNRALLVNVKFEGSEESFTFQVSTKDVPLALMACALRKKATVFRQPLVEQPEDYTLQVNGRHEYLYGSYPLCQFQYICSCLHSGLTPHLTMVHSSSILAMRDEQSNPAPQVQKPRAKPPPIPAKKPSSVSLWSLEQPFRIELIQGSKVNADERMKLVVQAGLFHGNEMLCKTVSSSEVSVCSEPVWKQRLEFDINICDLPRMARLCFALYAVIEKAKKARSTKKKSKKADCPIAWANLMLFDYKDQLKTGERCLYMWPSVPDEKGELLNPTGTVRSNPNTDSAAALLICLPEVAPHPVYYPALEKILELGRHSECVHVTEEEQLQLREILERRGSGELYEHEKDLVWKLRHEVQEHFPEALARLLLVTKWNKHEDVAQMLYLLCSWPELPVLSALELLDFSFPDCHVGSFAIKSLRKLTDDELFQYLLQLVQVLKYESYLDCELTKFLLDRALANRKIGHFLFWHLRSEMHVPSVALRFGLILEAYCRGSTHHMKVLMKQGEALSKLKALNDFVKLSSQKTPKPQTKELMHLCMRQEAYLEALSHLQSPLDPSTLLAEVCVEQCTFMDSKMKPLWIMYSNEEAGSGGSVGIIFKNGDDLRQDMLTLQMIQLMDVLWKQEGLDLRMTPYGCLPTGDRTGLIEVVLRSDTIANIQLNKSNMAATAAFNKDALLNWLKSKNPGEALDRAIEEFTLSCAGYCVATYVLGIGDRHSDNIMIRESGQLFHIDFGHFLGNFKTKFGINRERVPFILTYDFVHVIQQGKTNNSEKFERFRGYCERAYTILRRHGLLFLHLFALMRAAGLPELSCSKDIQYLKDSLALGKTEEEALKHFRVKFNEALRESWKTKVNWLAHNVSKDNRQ

[5] = Cmax in CD1 mouse at 10 mg/kg, ip administered as single dose by LC-MS/MS analysis; format: ADME, organism-based; parameters: dose 10 mg/kg, route intraperitoneal; settings: in vivo
[6] = target: T1, Phosphatidylinositol 4,5-bisphosphate 3-kinase catalytic subunit alpha isoform; assay: Inhibition of PIK3CA-mediated cell signaling in PTEN-deficient human U87MG cells assessed as inhibition of insulin-induced pAkt/PKB phosphorylation at Thr308 treated for 15 mins before insulin challenge measured after 5 mins by immunoblotting; format: cell-based, U-87MG ATCC
[7] = Tmax in CD1 mouse at 10 mg/kg, ip administered as single dose by LC-MS/MS analysis; format: ADME, organism-based; parameters: dose 10 mg/kg, route intraperitoneal; settings: in vivo
[8] = target: Phosphatidylinositol 4,5-bisphosphate 3-kinase catalytic subunit alpha isoform (Homo sapiens, UniProt P42336, E545K); assay: Inhibition of human PI3K p110alpha helical domain E545K mutant after 2 hrs by HTRF assay
Phosphatidylinositol 4,5-bisphosphate 3-kinase catalytic subunit alpha isoform (Homo sapiens, UniProt P42336, E545K), sequence (P42336 whole entry E545K, the tested form may be a part, canonical isoform): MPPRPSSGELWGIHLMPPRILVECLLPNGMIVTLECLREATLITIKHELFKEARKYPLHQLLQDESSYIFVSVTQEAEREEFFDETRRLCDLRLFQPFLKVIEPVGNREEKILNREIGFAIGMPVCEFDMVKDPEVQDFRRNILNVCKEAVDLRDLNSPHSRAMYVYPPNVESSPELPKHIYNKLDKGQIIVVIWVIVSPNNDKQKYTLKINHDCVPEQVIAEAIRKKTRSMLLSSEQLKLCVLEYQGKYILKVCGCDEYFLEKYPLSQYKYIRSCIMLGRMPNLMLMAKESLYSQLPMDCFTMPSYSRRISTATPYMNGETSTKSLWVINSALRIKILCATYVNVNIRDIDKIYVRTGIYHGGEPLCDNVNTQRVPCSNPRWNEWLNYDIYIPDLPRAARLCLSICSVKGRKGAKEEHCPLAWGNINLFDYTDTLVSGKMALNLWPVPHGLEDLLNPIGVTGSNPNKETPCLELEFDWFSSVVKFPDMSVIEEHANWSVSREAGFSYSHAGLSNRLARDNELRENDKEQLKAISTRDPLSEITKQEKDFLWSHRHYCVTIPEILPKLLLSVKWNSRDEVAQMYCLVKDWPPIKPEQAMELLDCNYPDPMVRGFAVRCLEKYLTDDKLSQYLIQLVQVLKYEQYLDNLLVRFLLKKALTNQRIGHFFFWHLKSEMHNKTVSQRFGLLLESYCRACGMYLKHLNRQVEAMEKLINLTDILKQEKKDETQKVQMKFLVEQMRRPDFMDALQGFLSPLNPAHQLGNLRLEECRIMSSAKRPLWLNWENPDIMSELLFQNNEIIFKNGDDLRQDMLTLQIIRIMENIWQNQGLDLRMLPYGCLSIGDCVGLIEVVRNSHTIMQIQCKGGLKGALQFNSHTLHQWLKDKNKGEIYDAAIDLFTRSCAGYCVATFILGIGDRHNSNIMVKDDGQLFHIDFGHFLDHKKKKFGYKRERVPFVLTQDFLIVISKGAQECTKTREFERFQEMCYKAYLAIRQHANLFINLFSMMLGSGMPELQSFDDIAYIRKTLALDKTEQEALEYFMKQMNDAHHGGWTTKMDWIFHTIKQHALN

cells [9] = settings: Homo sapiens, NZB5
[10] = AUC (infinity) in CD1 mouse at 10 mg/kg, ip administered as single dose by LC-MS/MS analysis; format: ADME, organism-based; parameters: time infinity, dose 10 mg/kg, route intraperitoneal; settings: plasma
cells [11] = settings: Homo sapiens, NZOV9
cells [12] = settings: Homo sapiens, HCT-116
[13] = Aqueous solubility of the compound in water after 15 mins by HPLC analysis; settings: aqueous medium
[14] = target: Phosphatidylinositol 4,5-bisphosphate 3-kinase catalytic subunit gamma isoform (Homo sapiens, UniProt P48736); assay: Inhibition of human His-tagged PI3K p110gamma after 2 hrs by HTRF assay
Phosphatidylinositol 4,5-bisphosphate 3-kinase catalytic subunit gamma isoform, sequence (P48736 whole entry, canonical isoform): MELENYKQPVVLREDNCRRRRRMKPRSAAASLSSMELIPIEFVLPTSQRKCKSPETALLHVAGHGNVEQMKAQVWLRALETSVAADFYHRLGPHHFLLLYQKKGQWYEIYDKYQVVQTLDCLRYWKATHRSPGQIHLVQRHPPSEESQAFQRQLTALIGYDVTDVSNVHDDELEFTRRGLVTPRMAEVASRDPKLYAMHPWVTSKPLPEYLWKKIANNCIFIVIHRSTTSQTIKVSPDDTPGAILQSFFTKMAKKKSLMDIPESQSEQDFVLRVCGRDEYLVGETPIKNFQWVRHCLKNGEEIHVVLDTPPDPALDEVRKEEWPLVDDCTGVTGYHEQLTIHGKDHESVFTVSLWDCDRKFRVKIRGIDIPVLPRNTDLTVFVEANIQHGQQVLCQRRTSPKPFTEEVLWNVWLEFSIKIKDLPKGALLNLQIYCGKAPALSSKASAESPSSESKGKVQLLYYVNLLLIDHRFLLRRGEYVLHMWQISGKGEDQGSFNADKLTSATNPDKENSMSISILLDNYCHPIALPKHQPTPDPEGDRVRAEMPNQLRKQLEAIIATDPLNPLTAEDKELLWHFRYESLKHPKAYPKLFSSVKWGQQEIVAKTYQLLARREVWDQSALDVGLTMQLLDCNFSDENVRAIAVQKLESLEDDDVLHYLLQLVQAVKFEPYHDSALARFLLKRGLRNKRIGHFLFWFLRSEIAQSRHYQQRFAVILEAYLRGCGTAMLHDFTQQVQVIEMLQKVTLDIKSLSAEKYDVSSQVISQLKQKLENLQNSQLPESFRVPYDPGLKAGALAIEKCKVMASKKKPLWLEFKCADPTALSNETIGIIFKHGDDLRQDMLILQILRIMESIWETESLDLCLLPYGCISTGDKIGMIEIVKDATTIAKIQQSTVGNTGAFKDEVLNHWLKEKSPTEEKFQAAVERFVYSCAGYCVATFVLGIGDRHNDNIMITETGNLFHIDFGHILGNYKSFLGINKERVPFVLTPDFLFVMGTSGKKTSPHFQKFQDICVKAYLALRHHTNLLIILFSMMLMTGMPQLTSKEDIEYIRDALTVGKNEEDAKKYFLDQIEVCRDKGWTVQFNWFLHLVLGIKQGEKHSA

[15] = target: Phosphatidylinositol 4,5-bisphosphate 3-kinase catalytic subunit alpha isoform (Mus musculus, UniProt P42337); assay: Inhibition of mouse recombinant PI3K p110alpha expressed in Sf21 insect cells using phosphatidylinositol as substrate after 1 hr by phosphoimaging
Phosphatidylinositol 4,5-bisphosphate 3-kinase catalytic subunit alpha isoform (Mus musculus, UniProt P42337), sequence (P42337 whole entry, canonical isoform): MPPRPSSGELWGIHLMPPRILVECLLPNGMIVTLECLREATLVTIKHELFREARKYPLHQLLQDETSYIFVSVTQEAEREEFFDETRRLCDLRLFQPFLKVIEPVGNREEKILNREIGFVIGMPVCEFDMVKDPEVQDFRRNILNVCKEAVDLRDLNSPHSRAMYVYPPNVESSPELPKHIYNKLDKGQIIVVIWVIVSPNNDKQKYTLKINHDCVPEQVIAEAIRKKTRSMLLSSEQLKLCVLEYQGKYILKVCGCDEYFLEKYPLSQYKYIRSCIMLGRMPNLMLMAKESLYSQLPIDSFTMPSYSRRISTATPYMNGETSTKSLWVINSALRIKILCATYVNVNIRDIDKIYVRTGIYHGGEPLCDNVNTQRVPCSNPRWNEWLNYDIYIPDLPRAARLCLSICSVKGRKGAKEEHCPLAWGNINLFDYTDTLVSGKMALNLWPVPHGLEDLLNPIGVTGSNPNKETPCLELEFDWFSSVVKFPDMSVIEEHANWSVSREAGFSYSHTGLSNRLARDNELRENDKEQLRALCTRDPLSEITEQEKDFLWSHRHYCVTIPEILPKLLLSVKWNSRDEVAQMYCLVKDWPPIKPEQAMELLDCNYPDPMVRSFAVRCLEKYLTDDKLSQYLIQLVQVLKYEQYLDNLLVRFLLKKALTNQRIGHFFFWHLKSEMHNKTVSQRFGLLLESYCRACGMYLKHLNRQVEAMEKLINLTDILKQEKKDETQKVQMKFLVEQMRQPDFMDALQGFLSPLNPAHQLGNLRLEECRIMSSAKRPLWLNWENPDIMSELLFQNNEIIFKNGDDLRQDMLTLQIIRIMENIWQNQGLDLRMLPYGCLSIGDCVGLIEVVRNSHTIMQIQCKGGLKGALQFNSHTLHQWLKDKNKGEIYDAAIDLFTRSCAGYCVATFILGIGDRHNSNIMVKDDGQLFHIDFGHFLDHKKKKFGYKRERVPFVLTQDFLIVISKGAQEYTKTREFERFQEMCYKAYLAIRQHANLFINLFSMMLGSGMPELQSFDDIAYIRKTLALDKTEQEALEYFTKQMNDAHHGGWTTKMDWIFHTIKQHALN

cells [16] = settings: Homo sapiens, HCT-116; remark: listed apart in the source
[17] = target: T3, Phosphatidylinositol 4,5-bisphosphate 3-kinase catalytic subunit beta isoform (Homo sapiens, UniProt P42338); assay: Inhibition of human recombinant PI3K p110beta expressed in Sf21 insect cells using phosphatidylinositol as substrate after 1 hr by phosphoimaging
T3 sequence (P42338 whole entry, canonical isoform): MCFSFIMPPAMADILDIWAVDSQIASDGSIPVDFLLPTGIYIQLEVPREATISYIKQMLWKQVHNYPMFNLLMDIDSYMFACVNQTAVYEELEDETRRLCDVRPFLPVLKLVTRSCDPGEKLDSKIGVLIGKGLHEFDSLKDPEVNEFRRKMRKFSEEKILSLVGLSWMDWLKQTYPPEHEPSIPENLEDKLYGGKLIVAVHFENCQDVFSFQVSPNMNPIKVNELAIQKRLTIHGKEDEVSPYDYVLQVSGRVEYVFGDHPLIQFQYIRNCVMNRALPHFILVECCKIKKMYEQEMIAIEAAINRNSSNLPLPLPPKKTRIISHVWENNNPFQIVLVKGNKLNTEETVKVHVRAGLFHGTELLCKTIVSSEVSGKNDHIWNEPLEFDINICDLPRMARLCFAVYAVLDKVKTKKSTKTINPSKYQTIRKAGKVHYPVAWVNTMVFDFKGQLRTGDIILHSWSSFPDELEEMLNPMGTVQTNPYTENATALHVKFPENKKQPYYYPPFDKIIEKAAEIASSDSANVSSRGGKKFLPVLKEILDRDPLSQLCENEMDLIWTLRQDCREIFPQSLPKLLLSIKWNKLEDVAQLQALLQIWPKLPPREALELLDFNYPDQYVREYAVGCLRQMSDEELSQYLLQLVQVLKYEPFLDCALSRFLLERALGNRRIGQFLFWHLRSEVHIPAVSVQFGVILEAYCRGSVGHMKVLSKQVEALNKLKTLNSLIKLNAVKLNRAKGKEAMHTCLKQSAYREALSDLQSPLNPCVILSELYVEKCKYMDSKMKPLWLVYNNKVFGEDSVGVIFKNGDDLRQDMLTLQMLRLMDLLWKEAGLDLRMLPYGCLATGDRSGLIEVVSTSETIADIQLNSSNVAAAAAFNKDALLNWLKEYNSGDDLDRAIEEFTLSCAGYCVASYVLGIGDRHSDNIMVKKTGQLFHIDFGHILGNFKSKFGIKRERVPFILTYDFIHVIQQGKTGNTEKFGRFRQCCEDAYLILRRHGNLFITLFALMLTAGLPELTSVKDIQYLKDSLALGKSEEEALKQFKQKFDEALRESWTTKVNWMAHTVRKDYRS

[18] = target: T1, Phosphatidylinositol 4,5-bisphosphate 3-kinase catalytic subunit alpha isoform; assay: Inhibition of human His-tagged PI3K p110alpha after 2 hrs by HTRF assay
[19] = target: Phosphatidylinositol 4,5-bisphosphate 3-kinase catalytic subunit alpha isoform (Homo sapiens, UniProt P42336, H1047R); assay: Inhibition of human His-tagged PI3K p110alpha H1047R mutant after 2 hrs by HTRF assay
Phosphatidylinositol 4,5-bisphosphate 3-kinase catalytic subunit alpha isoform (Homo sapiens, UniProt P42336, H1047R), sequence (P42336 whole entry H1047R, canonical isoform): as the sequence (P42336 whole entry E545K, the tested form may be a part, canonical isoform) above, with K545E, H1047R counted along it

[20] = target: T3, Phosphatidylinositol 4,5-bisphosphate 3-kinase catalytic subunit beta isoform; assay: Inhibition of human His-tagged PI3K p110beta after 2 hrs by HTRF assay
[21] = Antitumor activity in PTEN-deficient human U87MG xenografted in Rag1-/- mouse assessed as inhibition of tumor growth at 40 mg/kg, ip qd for 10 days measured after 10 days (reference value: 18.5 +/- 3.4%); format: functional, U-87MG ATCC; settings: U-87 MG, 240 h, read-out: GI, route intraperitoneal
Mus musculus [22] = assay: Toxicity in PTEN-deficient human U87MG cells xenografted Rag1-/- mouse assessed as body weight loss at 40 mg/kg, ip qd for 10 days; format: organism-based, U-87MG ATCC; parameters: dose 40 mg/kg, route intraperitoneal; settings: in vivo, 240 h
Mus musculus [23] = assay: Toxicity in PTEN-deficient human U87MG cells xenografted Rag1-/- mouse assessed as delayed body weight loss at 50 mg/kg, ip qd for 10 days; format: organism-based, U-87MG ATCC; parameters: dose 50 mg/kg, route intraperitoneal; settings: in vivo, 240 h
[24] = Antitumor activity in PTEN-deficient human U87MG xenografted in Rag1-/- mouse assessed as inhibition of tumor growth at 15 mg/kg, ip qd for 10 days measured after 10 days (reference value: 18.5 +/- 3.4%); format: functional, U-87MG ATCC; settings: U-87 MG, 240 h, route intraperitoneal, read-out: GI
Mus musculus [25] = assay: Toxicity in PTEN-deficient human U87MG cells xenografted Rag1-/- mouse assessed as body weight loss at 15 mg/kg, ip qd for 10 days; format: organism-based, U-87MG ATCC; parameters: dose 15 mg/kg, route intraperitoneal; settings: in vivo, 240 h

T1 sequence (P42336 whole entry, canonical isoform): as the sequence (P42336 whole entry E545K, the tested form may be a part, canonical isoform) above, with K545E counted along it

SMILES	IC50 [1] [nM]	half-life [2] [h]	IC50 [4] [nM]	Cmax [5] [nM]	IC50 [6] [nM]	Tmax [7] [h]	IC50 [8] [nM]	IC50 (cells [9]) [nM]	AUC(0-inf) [10] [µM·h]	IC50 (cells [11]) [nM]	IC50 (cells [12]) [nM]	solubility at […] [13] [µg/mL]	IC50 [14] [nM]	IC50 [15] [nM]	IC50 (cells [16]) [nM]	IC50 [17] [nM]	IC50 [18] [nM]	IC50 [19] [nM]	IC50 [20] [nM]	IC50 [3] [nM]	further results
FC(F)c1nc2ccccc2n1-c1nc(N2CCOCC2)nc(N2CCOCC2)n1 [ZSTK-474]	–	1.52	–	2360	–	2	–	–	9.66	–	97	0.61 (≈ 1.46 µM)	–	–	78	–	–	–	–	–	inhibition in vivo at 40 mg/kg [21]: 65.3%; Activity (Mus musculus [22]): Non-toxic
COc1cc(N)cc2c1nc(C(F)F)n2-c1nc(N2CCOCC2)nc(N2CCOCC2)n1	–	1.48	–	3450	–	0.083	–	–	5.22	–	12	–	–	–	–	–	–	–	–	–	Activity (Mus musculus [23]): Toxic
Cn1c(=O)n(-c2ccc(C(C)(C)C#N)cc2)c2c3cc(-c4cnc5ccccc5c4)ccc3ncc21 [DACTOLISIB]	–	–	–	–	–	–	–	–	–	–	–	–	–	–	–	–	–	–	–	–	inhibition in vivo at 15 mg/kg [24]: 31.5%; Activity (Mus musculus [25]): Non-toxic
FC(F)Oc1cccc2c1nc(C(F)F)n2-c1nc(N2CCOCC2)nc(N2CCOCC2)n1	427	–	34	–	418	–	3	47	–	28	415	–	56	26	381	56	4.7	8.5	> 2500	7.4	–

The next lines start with results.

IC50 [1] [nM]	half-life [2] [h]	IC50 [4] [nM]	Cmax [5] [nM]	IC50 [6] [nM]	Tmax [7] [h]	IC50 [8] [nM]	IC50 (cells [9]) [nM]	AUC(0-inf) [10] [µM·h]	IC50 (cells [11]) [nM]	IC50 (cells [12]) [nM]	solubility at […] [13] [µg/mL]	IC50 [14] [nM]	IC50 [15] [nM]	IC50 (cells [16]) [nM]	IC50 [17] [nM]	IC50 [18] [nM]	IC50 [19] [nM]	IC50 [20] [nM]	SMILES	IC50 [3] [nM]	further results
1.3	1.55	0.65	628	2.9	0.25	0.12	30	1.03	10	8.3	0.32 (≈ 0.738 µM)	6	0.9	0.18	0.68	0.53	0.83	3.5	Oc1cccc2c1nc(C(F)F)n2-c1nc(N2CCOCC2)nc(N2CCOCC2)n1	0.27	–
583	–	2	–	378	–	49	334	–	130	507	–	52	37	515	6.7	70	158	44	COc1ccc2c(nc(C(F)F)n2-c2nc(N3CCOCC3)nc(N3CCOCC3)n2)c1O	0.3	–
